In US9884842B2, “Combretastatin analogs” (The Board of Trustees of the University of Arkansas, priority 2013, dated 2018):
Read-outs that look alike come from different tables or passages of the source.

Experiments:
[1] = system: SK-MEL-5; test: NCI growth inhibition and cytotoxicity screen, Melanoma panel; settings: Homo sapiens; for GI50: SK-MEL-5; for CC50: SK-MEL-5, read-out: LC50
[2] = system: HS 578T; test: NCI growth inhibition and cytotoxicity screen, Breast Cancer panel; settings: Homo sapiens; for CC50: read-out: LC50
[3] = system: UO-31; test: NCI growth inhibition and cytotoxicity screen, Renal Cancer panel; settings: Homo sapiens; for GI50: UO-31; for CC50: UO-31, read-out: LC50
[4] = system: NCI-H23; test: NCI growth inhibition and cytotoxicity screen, Lung Cancer panel; settings: Homo sapiens; for GI50: NCI-H23; for CC50: NCI-H23, read-out: LC50
[5] = system: SN12C; test: NCI growth inhibition and cytotoxicity screen, Renal Cancer panel; settings: Homo sapiens; for CC50: read-out: LC50
[6] = system: HOP-62; test: NCI growth inhibition and cytotoxicity screen, Lung Cancer panel; settings: Homo sapiens; for GI50: HOP-62; for CC50: HOP-62, read-out: LC50
[7] = system: HCT-116; test: NCI growth inhibition and cytotoxicity screen, Colon Cancer panel; settings: Homo sapiens; for GI50: HCT-116; for CC50: HCT-116, read-out: LC50
[8] = system: SW-620; test: as above; settings: Homo sapiens; for GI50: SW-620; for CC50: SW-620, read-out: LC50
[9] = system: HL-60(TB); test: cells; settings: Homo sapiens; for GI50: HL-60; for CC50: HL-60, read-out: LC50
[10] = system: SF-295; test: NCI growth inhibition and cytotoxicity screen, CNS Cancer panel; assay type: cell-based; settings: Homo sapiens, Table 2, cell line SF-295 (CNS Cancer); for CC50: read-out: LC50 (the source's name)
[11] = system: MDA-MB-435; test: NCI growth inhibition and cytotoxicity screen, Melanoma panel; settings: Homo sapiens; for GI50: MDA-MB-435; for CC50: MDA-MB-435, read-out: LC50
[12] = system: HCT-15; test: NCI growth inhibition and cytotoxicity screen, Colon Cancer panel; settings: Homo sapiens; for GI50: HCT-15; for CC50: HCT-15, read-out: LC50
[13] = system: RXF 393; test: NCI growth inhibition and cytotoxicity screen, Renal Cancer panel; settings: Homo sapiens; for GI50: RXF 393; for CC50: RXF 393, read-out: LC50
[14] = system: COLO 205; test: NCI growth inhibition and cytotoxicity screen, Colon Cancer panel; settings: Homo sapiens; for GI50: COLO 205; for CC50: COLO 205, read-out: LC50
[15] = system: full panel of 60 different cancer cell lines; test: NCI five dose screen, full panel summary; assay type: cell-based, human; settings: for GI50: Homo sapiens; for potent growth inhibition on % of the cancer cell lines: share of the cancer cell lines potently inhibited
[16] = system: MALME-3M; test: NCI growth inhibition and cytotoxicity screen, Melanoma panel; settings: Homo sapiens
[17] = system: OVCAR-8; test: NCI growth inhibition and cytotoxicity screen, Ovarian Cancer panel; settings: Homo sapiens; for GI50: OVCAR-8; for CC50: OVCAR-8, read-out: LC50
[18] = system: MDA-MB-468; test: cells; settings: Homo sapiens; for GI50: MDA-MB-468; for CC50: MDA-MB-468, read-out: LC50
[19] = system: MOLT-4; test: NCI growth inhibition and cytotoxicity screen, Leukemia panel; settings: Homo sapiens; for GI50: MOLT-4; for CC50: MOLT-4, read-out: LC50
[20] = system: DU-145; test: NCI growth inhibition and cytotoxicity screen, Prostate Cancer panel; settings: Homo sapiens; for GI50: DU-145; for CC50: DU-145, read-out: LC50
[21] = system: PC-3; test: as above; settings: Homo sapiens; for GI50: PC-3; for CC50: PC-3, read-out: LC50
[22] = system: MDA-MB-231/ATCC; test: NCI growth inhibition and cytotoxicity screen, Breast Cancer panel; settings: Homo sapiens; for GI50: MDA-MB-231; for CC50: MDA-MB-231, read-out: LC50
[23] = system: NCI-H522; test: NCI growth inhibition and cytotoxicity screen, Lung Cancer panel; assay type: cell-based; settings: Homo sapiens, Table 2, cell line NCI-H522 (Lung Cancer); for CC50: read-out: LC50 (the source's name)
[24] = system: HCC-2998; test: NCI growth inhibition and cytotoxicity screen, Colon Cancer panel; settings: Homo sapiens; for GI50: HCC 2998; for CC50: HCC 2998, read-out: LC50
[25] = system: OVCAR-4; test: NCI growth inhibition and cytotoxicity screen, Ovarian Cancer panel; settings: Homo sapiens; for GI50: OVCAR-4; for CC50: OVCAR-4, read-out: LC50
[26] = system: NCI-H322M; test: NCI growth inhibition and cytotoxicity screen, Lung Cancer panel; settings: Homo sapiens; for CC50: read-out: LC50
[27] = system: ACHN; test: NCI growth inhibition and cytotoxicity screen, Renal Cancer panel; settings: Homo sapiens; for CC50: read-out: LC50
[28] = system: CCRF-CEM; test: NCI growth inhibition and cytotoxicity screen, Leukemia panel; settings: Homo sapiens; for CC50: read-out: LC50
[29] = range over the potently inhibited cell lines, read-out: GI50 ranging (potently inhibited cancer cell lines)
[30] = read-out: average GI50 value on all the cancer cell lines

`COc1cc(OC)cc(/C(C#N)=C/c2ccc3ccccc3n2)c1` [PNR-4-84, (Z)-2-(3,5-dimethoxyphenyl)-3-(quinolin-2-yl)acrylonitrile] showed a GI50 [1] of 0.406 µM, a CC50 [1] of over 100 µM and a GI50 [2] of 0.7 µM. The CC50 [2] was over 100 µM, the GI50 [3] was 0.573 µM and the CC50 [3] was over 100 µM. For the same compound, the GI50 [4] was 0.983 µM, the CC50 [4] was over 100 µM and the GI50 [5] was 0.661 µM. It also gave a CC50 [5] of over 100 µM, a GI50 [6] of 0.959 µM and a CC50 [6] of over 100 µM. The GI50 [7] was 0.416 µM, the CC50 [7] was 47.3 µM and the GI50 [8] was 0.357 µM. For the same compound, the CC50 [8] was over 100 µM, the GI50 [9] was 0.27 µM and the CC50 [9] was over 100 µM. The GI50 [10] was 0.341 µM, the CC50 [10] was over 100 µM and the GI50 [11] was 0.147 µM. For the same compound, the CC50 [11] was over 100 µM, the GI50 [12] was 0.409 µM and the CC50 [12] was over 100 µM. The GI50 [13] was 0.334 µM, the CC50 [13] was over 100 µM and the GI50 [14] was 0.374 µM. It also gave a CC50 [14] of over 100 µM, a GI50 [15, 29] of 0.094 to 0.983 µM and a GI50 [15, 30] of 0.49 µM. For the same compound, the “potent growth inhibition on % of the cancer cell lines” value [15] was 86%, the GI50 [16] was 0.348 µM and the CC50 ([16]; read-out: LC50) was over 100 µM. It also gave a GI50 [17] of 0.659 µM, a CC50 [17] of over 100 µM and a GI50 [18] of 1.5 µM. For the same compound, the CC50 [18] was over 100 µM, the GI50 [19] was 0.419 µM and the CC50 [19] was over 100 µM. The GI50 [20] was 0.801 µM, the CC50 [20] was over 100 µM and the GI50 [21] was 0.584 µM. The CC50 [21] was over 100 µM, the GI50 [22] was 1.02 µM and the CC50 [22] was over 100 µM. It also gave a GI50 [23] of 0.094 µM, a CC50 [23] of over 100 µM and a GI50 [24] of 1.42 µM. It also gave a CC50 [24] of over 100 µM, a GI50 [25] of 0.788 µM and a CC50 [25] of over 100 µM. It also gave a GI50 [26] of 3.02 µM, a CC50 [26] of over 100 µM and a GI50 [27] of 0.773 µM. For the same compound, the CC50 [27] was over 100 µM, the GI50 [28] was 0.332 µM and the CC50 [28] was over 100 µM.

In the case of `COc1cc(/C(C#N)=C/c2ccc3ccccc3n2)cc(OC)c1OC` [PNR-4-90, (Z)-3-(quinolin-2-yl)-2-(3,4,5-trimethoxyphenyl)acrylonitrile], the GI50 [1] is reported as 0.243 µM, the CC50 [1] is reported as over 100 µM and the GI50 [2] is reported as 0.689 µM. For the same compound, the CC50 [2] was over 100 µM, the GI50 [3] was 0.762 µM and the CC50 [3] was over 100 µM. For the same compound, the GI50 [4] was 0.751 µM, the CC50 [4] was over 100 µM and the GI50 [5] was 0.627 µM. For the same compound, the CC50 [5] was over 100 µM, the GI50 [6] was 0.567 µM and the CC50 [6] was over 100 µM. For the same compound, the GI50 [7] was 0.234 µM, the CC50 [7] was over 100 µM and the GI50 [8] was 0.164 µM. The CC50 [8] was over 100 µM, the GI50 [9] was 0.223 µM and the CC50 [9] was over 100 µM. It also gave a GI50 [10] of 0.277 µM, a CC50 [10] of over 100 µM and a GI50 [11] of 0.033 µM. For the same compound, the CC50 [11] was 60 µM, the GI50 [12] was 0.319 µM and the CC50 [12] was over 100 µM. The GI50 [13] was 0.271 µM, the CC50 [13] was over 100 µM and the GI50 [14] was 0.198 µM. The CC50 [14] was 32.7 µM, the GI50 [15, 29] was 0.033 to 0.943 µM and the GI50 [15, 30] was 0.4 µM. For the same compound, the “potent growth inhibition on % of the cancer cell lines” value [15] was 91%, the GI50 [17] was 0.446 µM and the CC50 [17] was over 100 µM. The GI50 [18] was 0.243 µM, the CC50 [18] was over 100 µM and the GI50 [19] was 0.488 µM. The CC50 [19] was over 100 µM, the GI50 [20] was 0.446 µM and the CC50 [20] was over 100 µM. For the same compound, the GI50 [21] was 0.348 µM, the CC50 [21] was over 100 µM and the GI50 [22] was 0.943 µM. For the same compound, the CC50 [22] was over 100 µM, the GI50 [23] was 0.0372 µM and the CC50 [23] was over 100 µM. For the same compound, the GI50 [24] was 0.61 µM, the CC50 [24] was over 100 µM and the GI50 [25] was 1.43 µM. The CC50 [25] was over 100 µM, the GI50 [26] was 0.718 µM and the CC50 [26] was over 100 µM. The GI50 [27] was 1.04 µM, the CC50 [27] was over 100 µM and the GI50 [28] was 0.248 µM. It also gave a CC50 [28] of over 100 µM.
